In PubChem BioAssay (NCI):
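Five concentrations, 48 hours, 96-well plates. GI50 marks 50% less growth. At the TGI there is no net growth.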

Assays:
Test in all cases: NCI anticancer screen, dose series, 48 h
[1] = test system: SF-268 CNS
[2] = test system: UACC-62 melanoma
[3] = test system: HOP-92 NSCLC
[4] = test system: K-562 leukemia
[5] = test system: HL-60(TB) leukemia
[6] = test system: SN12C renal
[7] = test system: OVCAR-4 ovarian
[8] = test system: A498 renal
[9] = test system: SK-MEL-5 melanoma

Structure (SMILES) | TGI [1] [µM] | TGI [2] [µM] | TGI [3] [µM] | TGI [4] [µM] | TGI [5] [µM] | TGI [6] [µM] | TGI [7] [µM] | TGI [8] [µM] | TGI [9] [µM] | GI50 [1] [µM] | GI50 [2] [µM] | GI50 [3] [µM] | GI50 [6] [µM] | GI50 [7] [µM] | GI50 [8] [µM] | GI50 [9] [µM] | GI50 [4] [µM] | GI50 [5] [µM]
CCCNC1=C(C(=O)OCC)C(=O)CO1 | > 100 | > 100 | > 100 | > 100 | > 100 | > 100 | > 100 | > 100 | > 100 | – | – | – | – | – | – | – | – | –
N#C/C(=C\c1ccc(O)c(O)c1)C(N)=S | > 100 | > 100 | > 100 | > 100 | > 20 | > 100 | > 100 | > 100 | > 100 | – | – | – | – | – | – | – | – | –
CCCCCCCCCCCC(=O)OCC1OC(n2cc(F)c(=O)[nH]c2=O)C(NC(=O)OCc2ccccc2)C(OC(=O)CCCCCCCCCCC)C1O (stereo unspecified) | > 100 | > 100 | > 100 | > 100 | – | > 100 | > 100 | > 100 | > 100 | – | – | – | – | – | – | – | – | –
NC1C[C@H](n2cc(/C=C/Br)c(=O)[nH]c2=O)C[C@@H]1CO (stereo partly specified) | > 100 | > 100 | – | > 100 | > 100 | > 100 | > 100 | > 100 | – | – | – | – | – | – | – | – | – | –
Nc1ccn(CCNCCn2cnc3nc(N)[nH]c(=O)c32)c(=O)n1 | > 100 | – | > 100 | > 100 | > 100 | > 100 | > 100 | > 100 | – | – | – | – | – | – | – | – | – | –
CCN(CC)c1ccc(C(=O)c2ccccc2C(=O)O)c(O)c1 | > 100 | > 100 | > 100 | > 100 | > 100 | > 100 | > 100 | > 100 | > 100 | – | – | – | – | – | – | – | – | –
COc1cc(OC(C)=O)cc2c(OC(C)=O)ccc(OC(C)=O)c12 | > 100 | > 100 | 46.7 | > 100 | > 100 | > 100 | > 100 | > 100 | > 100 | – | – | – | – | – | – | – | – | –
COC(C(=O)[O][Ge]([CH3])([CH3])[CH3])c1ccccc1 (stereo unspecified) | > 100 | > 100 | > 100 | – | – | > 100 | > 100 | > 100 | > 100 | > 100 | > 100 | > 100 | > 100 | > 100 | > 100 | > 100 | – | –
Cc1[nH]ccc2c1[nH]c1cc(=O)ccc12 | > 100 | > 100 | > 100 | > 100 | > 100 | > 100 | > 100 | > 100 | > 100 | – | – | – | – | – | – | – | – | –
COc1cc2c(c(OC)c1)C1c3ccccc3NC(=O)N1CC2 (stereo unspecified) | > 100 | > 100 | > 100 | > 100 | 5.56 | > 100 | > 100 | – | 15.3 | 7.02 | 3.08 | 7.25 | 7.27 | 8.24 | – | 4.01 | 2.98 | 2.12
CCOc1ccc(NC(=O)C(=O)CC(=O)C2=C(C)Nc3ccccc3S2)cc1 | > 50 | > 50 | > 50 | > 50 | – | > 50 | > 50 | > 50 | > 50 | – | – | – | – | – | – | – | – | –
CC1SC2=NC3=C(c4ccccc4C3=O)C(c3ccc(F)cc3)N2C1=O (stereo unspecified) | > 100 | > 100 | > 100 | > 100 | > 100 | > 100 | > 100 | > 100 | > 100 | – | – | – | – | – | – | – | – | –
CCc1ccccc1NC(=O)C(=O)CC(=O)c1sc(Nc2ccccc2)nc1C | > 100 | > 100 | > 100 | > 100 | > 100 | > 100 | > 100 | > 100 | > 100 | – | – | – | – | – | – | – | – | –
C=CCC[CH2][Sn]([c]1ccccc1)([c]1ccccc1)[c]1ccccc1 | 2.71 | 2.36 | 3.38 | 16.5 | > 100 | 2.95 | 2.86 | – | 3.02 | 1.26 | 1.11 | 1.78 | 1.57 | 1.48 | – | 1.65 | 2.15 | 5.29
NNC(=O)/C(=C/c1ccc(Cl)cc1Cl)NC(=O)c1ccccc1 | > 100 | > 100 | > 100 | > 100 | > 100 | > 100 | > 100 | > 100 | > 100 | – | – | – | – | – | – | – | – | –
Cc1cc(N(CCC#N)CCC#N)ccc1N=Nc1cccc(C(=O)O)c1 | > 100 | > 100 | – | > 100 | > 100 | > 100 | > 100 | > 100 | > 100 | – | – | – | – | – | – | – | – | –
CC1=C(C)C(=O)c2c(cc3ccccn23)C1=O | 52.8 | 35.4 | – | > 100 | 43.2 | 27.1 | > 100 | 46.1 | 22.1 | – | – | – | – | – | – | – | – | –

Structure (SMILES) | TGI [1] [µM] | TGI [2] [µM] | TGI [3] [µM] | TGI [4] [µM] | TGI [5] [µM] | TGI [6] [µM] | TGI [7] [µM] | TGI [8] [µM] | TGI [9] [µM] | GI50 [1] [µM] | GI50 [2] [µM] | GI50 [3] [µM] | GI50 [6] [µM] | GI50 [7] [µM] | GI50 [8] [µM] | GI50 [9] [µM] | GI50 [4] [µM] | GI50 [5] [µM]
O=C(CN1CCOCC1)Nc1nc(-c2ccc(Cl)cc2)cs1 | > 100 | 53.3 | > 100 | 94.5 | 44.9 | > 100 | > 100 | > 100 | – | – | – | – | – | – | – | – | – | –
C1C[OH+]CC[OH+]CCNCC[OH+]CC[OH+]CCN1.N.[Cl-].[Pt+4] | 14.5 | 14.9 | 58.3 | > 100 | > 100 | > 100 | 11.6 | 55.1 | 25.3 | 1.99 | 3.39 | 16.1 | 18.7 | 2.84 | 21.3 | 10.3 | 12.7 | 1.61
Cc1ccc(NC(=O)C(=O)C(C#N)c2ccccc2C)cc1C (stereo unspecified) | > 100 | > 100 | > 100 | > 70.1 | > 85.8 | > 100 | > 100 | > 100 | > 100 | – | – | – | – | – | – | – | – | –
CSc1ccc(C2OC(=O)c3ccccc32)c2ccccc12 (stereo unspecified) | > 100 | > 100 | > 100 | > 100 | > 100 | > 100 | > 100 | – | > 100 | – | – | – | – | – | – | – | – | –
O=C1/C(=C\c2c[nH]c3ccccc23)c2ccccc2N1c1c(Cl)cccc1Cl | 3.59 | 2.64 | 3.54 | 5.4 | 3.82 | 2.89 | 6.44 | 4.86 | 2.92 | 1.6 | 1.33 | 2 | 1.53 | 2.33 | 3.09 | 1.55 | 2.28 | 1.55
CC1=Nc2ccccc2S/C1=C(/C)NNC(=O)C(N)=O | > 100 | > 100 | > 100 | > 100 | > 100 | > 100 | > 100 | > 100 | > 100 | – | – | – | – | – | – | – | – | –
CN(C)C(=O)OC(Cn1cncn1)c1ccc(Cl)cc1Cl (stereo unspecified) | > 100 | > 100 | > 100 | > 100 | > 100 | > 100 | > 100 | > 100 | > 100 | – | – | – | – | – | – | – | – | –
C/C(=N\NS(=O)(=O)c1ccccc1)c1ccc(Cl)c(Cl)c1 | > 100 | > 100 | > 100 | > 100 | > 100 | > 100 | > 100 | > 100 | > 100 | – | – | – | – | – | – | – | – | –
Cc1ccc(N=Cc2ccc3c(c2)OCO3)cc1C | > 100 | > 100 | > 100 | – | > 100 | > 100 | – | > 100 | > 100 | – | – | – | – | – | – | – | – | –
CC1=C(Oc2ccccc2)C(CCC(=O)O)c2c(O)cc(Cl)c(O)c21 (stereo unspecified) | > 100 | – | > 100 | > 100 | > 100 | > 100 | > 100 | > 100 | > 100 | – | – | – | – | – | – | – | – | –
O=C(N/C(=C\c1ccc2c(c1)OCO2)c1nc2ccccc2[nH]1)c1ccccc1 | > 100 | 56.9 | 58.7 | > 79.6 | 37.4 | > 84.1 | 69.4 | > 93.8 | 29.9 | – | – | – | – | – | – | – | – | –
COc1ccc(OC)c(NC(=O)C2=C(C)NC(C)=C(C(=O)Nc3cc(OC)ccc3OC)C2c2ccccc2)c1 | > 100 | > 100 | > 100 | > 100 | – | > 100 | > 100 | > 100 | > 100 | – | – | – | – | – | – | – | – | –
CC1(C)C(=NNC(=O)C[N+](C)(C)C)C(C)(C)C1=NNC(=O)C[N+](C)(C)C | > 100 | > 100 | > 100 | > 100 | > 100 | > 100 | > 100 | > 100 | > 100 | – | – | – | – | – | – | – | – | –
O=[N+]([O-])C1C2C=CC(C2)[C@H]1c1ccco1 (stereo partly specified) | > 100 | > 100 | 18.4 | > 100 | > 100 | > 100 | > 100 | > 100 | > 100 | – | – | – | – | – | – | – | – | –
COc1ccc(-c2n/c(=C\c3c(O)[nH]c4ccc(OC)cc34)cc3c2=Nc2ccccc2-3)cc1 | – | – | 36.1 | – | 32.5 | > 100 | – | 25.4 | 2.91 | – | – | 13.8 | 4 | – | 11.6 | 1.53 | – | 10.3
CC1C=C(OC(=O)c2ccccc2)C(=O)C(n2cc(F)c(=O)[nH]c2=O)O1 (stereo unspecified) | > 100 | > 100 | > 100 | > 100 | > 100 | > 100 | > 100 | > 100 | > 100 | – | – | – | – | – | – | – | – | –
